For the test, the target named is ALCAT1 (Homo sapiens (Human), UniProt Q6UWP7). Description: In vitro acyltransferase assay for ALCAT1 inhibitors. Format: biochemical. Particulars: for inhibition at 1 µM / % inh @ 1 μM: 1 μM compound; for inhibition at 1 µM / inhibition at 10 µM / % inh @ 1 μM: in vitro enzymatic assay; for inhibition at 10 µM: 10 μM compound; for IC50: ALCAT1 enzyme activity, triplicates, GraphPad, read-out: IC50. From the text: The human ALCAT1 protein were expressed in Spodoptera frugiperda (Sf9) insect cells by using a Bac-to-Bac baculovirus expression system (Invitrogen) according to the manufacturer's instruction. High-titer recombinant baculovirus expressing the human ALCAT1 protein was generated by several rounds of viral amplification. The Sf9 cells were typically infected with recombinant baculovirus for 3 days, harvested in ice-cold phosphate-buffered saline (PBS), and homogenized in 20 mm NaCl by going through French press. The total cell lysates were centrifuged at 10,000×g for 1 hours at 4° C. to eliminate the nucleus fraction, followed by ultracentrifugation at 100,000×g to pallet the membrane fraction. The membrane fraction was resuspended in enzymatic buffer that contain 10% glycerol, quantified for protein concentration, aliquoted, and stored at −80° C.
ALCAT1 enzymatic activity was determined by measuring the conversion of monolysocardiolipin (MLCL) to cardiolipin or lysophosphatidylglycerol (LPG) to phosphatidylglycerol (PG) in an enzymatic reaction mixture that contained 50 mm Tris/HCl, pH 7.0, 100 μm lysophospholipids, 25 μm [^14C]acyl-CoA (50 mCi/mmol, American Radiolabeled Chemicals, Inc), and membrane fraction (0.5-2.5 μg) in a total volume of 200 μl. The reaction was incubated at room temperature for 30 min. The lipids were extracted will chloroform, dried, and separated by thin layer chromatography (TLC) with chloroform:hexane:methanol:acetic acid (50:30:10:5, v/v) or chloroform:methanol:water (65:25:4, v/v). After separation, TLC plates were exposed to a Phosphorlmager screen to visualize the radiolabeled products with a Molecular Dynamics Typhoon Scanner (Sunnyvale, Calif.). In some experiments, NBD-CoA was used at 100 μM to replace the [^14C]acyl-CoA in the enzymatic reaction. All quantitative data were expressed as mean±S.E. Statistical analyses for differences between two groups were carried out using a Student's t test.
Compound inhibitors for ALCAT1 enzyme were analyzed by an in vitro enzymatic assay as detailed above. Compound inhibitors were added to the enzymatic mixture at 1-20 μM concentrations before the start of the acyltransferase reaction.
Where multiple measurements were taken this is indicated by a “/” between multiple values.
IC50 values for each compound were analyzed in triplicates, and calculated by GraphPad software.

ALCAT1, sequence (Q6UWP7 whole entry): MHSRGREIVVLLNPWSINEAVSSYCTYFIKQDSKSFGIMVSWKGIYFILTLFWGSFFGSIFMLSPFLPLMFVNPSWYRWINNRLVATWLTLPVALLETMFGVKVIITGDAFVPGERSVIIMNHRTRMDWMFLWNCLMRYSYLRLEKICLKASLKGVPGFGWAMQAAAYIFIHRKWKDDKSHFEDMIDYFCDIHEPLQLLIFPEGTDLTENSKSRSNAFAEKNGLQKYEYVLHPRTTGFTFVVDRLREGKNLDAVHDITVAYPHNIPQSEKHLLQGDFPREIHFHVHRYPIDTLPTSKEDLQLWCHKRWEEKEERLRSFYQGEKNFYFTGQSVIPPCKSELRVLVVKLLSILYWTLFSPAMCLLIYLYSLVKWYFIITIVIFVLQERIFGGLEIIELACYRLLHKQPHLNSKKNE

As to `CSc1ccccc1C(=O)Nc1cccc(-c2nnc(-c3ccco3)o2)c1` [Compound 181], the inhibition at 1 µM amounted to 34% and the inhibition at 10 µM is 68%.

`COc1c(C)cccc1C(=O)Nc1cccc(-c2nnc(-c3ccco3)o2)c1` [Compound 182] showed an inhibition at 1 µM of 33%.

In the case of `O=C(Nc1cccc(-c2nnc(-c3ccco3)o2)c1)c1cccc(Cl)c1F` [Compound 186], 1 µM produced 92% inhibition, the inhibition at 10 µM is 100% and the IC50 was 0.39 µM.

On to `O=C(Nc1cccc(-c2nnc(-c3ccco3)o2)c1)c1cc(Br)ccc1F` [Compound 188], for which the inhibition at 1 µM was determined as 93%, the inhibition at 10 µM amounted to 100% and the IC50 worked out at 0.64 µM.

In the case of `O=C(Nc1cccc(-c2nnc(-c3ccco3)o2)c1)c1cc(Cl)ccc1F` [Compound 189], the inhibition at 1 µM is 92%, at 10 µM the inhibition was 100% and the IC50 is 0.32 µM.

Turning to `Cc1cccc(C(=O)Nc2cccc(-c3nnc(-c4ccco4)o3)c2)c1F` [Compound 190], the inhibition at 1 µM is 80%, the inhibition at 10 µM was determined as 100% and the IC50 was found to be 0.29 µM.

On to `O=C(Nc1cccc(-c2nnc(-c3ccco3)o2)c1)c1cccc(Br)c1F` [Compound 191], for which the inhibition at 1 µM came to 82%, at 10 µM the inhibition was 100% and the IC50 came to 0.33 µM.

For `COc1c(Br)cccc1C(=O)Nc1cccc(-c2nnc(-c3ccco3)o2)c1` [Compound 192, 3-Bromo-N-(3-(5-(furan-2-yl)-1,3,4-oxadiazol-2-yl)phenyl)-2-methoxybenzamide], the “% inh @ 1 μM” value was found to be 93%, 1 µM produced 89% inhibition and the IC50 amounted to 0.092 µM.

As for `COc1c(Cl)cccc1C(=O)Nc1cccc(-c2nnc(-c3ccco3)o2)c1` [Compound 193, 3-Chloro-N-(3-(5-(furan-2-yl)-1,3,4-oxadiazol-2-yl)phenyl)-2-methoxybenzamide], testing at 1 µM gave an inhibition of 92%, the inhibition at 10 µM was found to be 90% and the IC50 amounted to 0.067 µM.

On to `O=C(Nc1cccc(-c2nnc(-c3ccco3)o2)c1)c1cc(F)ccc1F` [Compound 195], for which testing at 1 µM gave an inhibition of 70%, at 10 µM the inhibition was 88% and the IC50 was determined as 0.36 µM.

Turning to `O=C(Nc1cccc(-c2nnc(-c3ccco3)o2)c1)c1cccc(F)c1F` [Compound 196], at 1 µM the inhibition was 68%, testing at 10 µM gave an inhibition of 97% and the concentration for half-maximal inhibition (IC50) amounted to 0.34 µM.

In the case of `COc1ccc(C)cc1C(=O)Nc1cccc(-c2nnc(-c3ccco3)o2)c1` [Compound 197, N-(3-(5-(Furan-2-yl)-1,3,4-oxadiazol-2-yl)phenyl)-2-methoxy-5-methylbenzamide], the inhibition at 1 µM was determined as 80%, the inhibition at 10 µM amounted to 97% and the IC50 amounted to 0.079 µM.

`O=C(Nc1cccc(-c2nnc(-c3ccco3)o2)c1)c1cccc(Br)c1` [Compound 203]: the 50% inhibitory concentration (IC50) stood at 1.9 µM.

Turning to `CCCOc1ccc(C)cc1C(=O)Nc1cccc(-c2nnc(-c3ccco3)o2)c1` [Compound 207], the “% inh @ 1 μM” value was 87%, the inhibition at 1 µM stood at 86% and the IC50 came to 0.19 µM.

Take `O=C(Nc1cccc(-c2nnc(-c3ccco3)o2)c1)c1cc(OC(F)(F)F)ccc1F` [Compound 211, 2-Fluoro-N-(3-(5-(furan-2-yl)-1,3,4-oxadiazol-2-yl)phenyl)-5-(trifluoromethoxy)benzamide]: the “% inh @ 1 μM” value amounted to 97%, 1 µM produced 95% inhibition and the IC50 is 0.096 µM.

`O=C(Nc1cccc(-c2nnc(-c3ccco3)o2)c1)c1ccc2occc2c1` [Compound 212] registered an inhibition at 1 µM of 26%.

Regarding `CCCCOc1ccccc1C(=O)Nc1cc(-c2nnc(-c3ccco3)o2)ccc1F` [Compound 213], the “% inh @ 1 μM” value worked out at 64% and the inhibition at 1 µM is 56%.

As for `COc1ccc(F)c(C(=O)Nc2cccc(-c3nnc(-c4ccco4)o3)c2)c1` [Compound 214], the “% inh @ 1 μM” value was determined as 76% and 1 µM produced 67% inhibition.

In general, inhibition refers to the change of the read-out against control, counted positive when it falls. Lower therefore signals a weak effect. The IC50 is the concentration that inhibits the measured activity by half.
